Assay results reported in patent US20110098219A1, “System for Curing Hepatic Cancer with Leptin” (KAOHSIUNG MEDICAL UNIVERSITY, priority 2009, published 2011).

System: liver cancer cells (hepatocellular carcinoma cell line)
Test: XTT assay, growth of liver cancer cells
Type: cell-based
Description: Please refer to FIG. 2, which is a view showing leptin's effect on growth of liver cancer cells. As shown in the figure, for acquiring effect of leptin on liver cancer cells, the preferred embodiment uses leptin having different doses, where the high-dose leptin has 100 nano-grams (ng) and the low-dose leptin has 10 ng. The 10 ng leptin is conformed to the physiological concentration of normal human body for observing effect of leptin on the cells. In the other hand, the 100 ng leptin is used to show whether a higher levels of leptin obtains a higher effect on the cells.
Please refer to FIG. 3, which is a view showing MPA's effect on growth of liver cancer cells. As shown in the figure, the preferred embodiment applies MPA having different doses to liver cancer cells.
Please refer to FIG. 4, which is a view showing effect of MPA+leptin on growth of liver cancer cells. As shown in the figure, the preferred embodiment applies MPA combined with leptin to liver cancer cells, where MPA has different doses and leptin has different doses.
Please refer to FIG. 9, which is a view showing reduced effect of MPA+leptin by suppressing leptin receptor expression. As shown in the figure, a 20 nano-moles (nM) of leptin receptor, siRNA, is transferred to cells to be cultured a day and is cultured in a serum-free medium for the next day. Then, the cells are processed with MPA+leptin for 24 hours to be analyzed through XTT assay. […] Thus, it is confirmed that leptin enhances MPA's suppression on the cells through the leptin receptor.
Please refer to FIG. 10A and FIG. 10B, which are views showing apoptosis of cells on increasing expression of leptin receptor and expression of progesterone receptor respectively. As shown in the figures, the preferred embodiment makes ob-Rb plasmid transfected to cells to be cultured a day and is cultured in a serum-free medium for the next day. Then, the cells are processed with MPA+leptin for 24 hours to be analyzed through XTT assay. […] Besides, the long-form Ob-R enhances expression of the progesterone receptor. Again, the preferred embodiment makes PgR plasmid transfected to cells to be cultured a day and is cultured in a serum-free medium for the next day. Then, the cells are processed with MPA+leptin for 24 hours to be analyzed through XTT assay.
Please refer to FIG. 15A to FIG. 16B, which are views showing cells containing very much leptin within; suppressed growth of the cells by using MPA; and STAT3- and MAPK-signal paths of the cells after MPA is applied. As shown in the figures, while leptin is added from outside in state 13 to suppress liver cancer cells with MPA+leptin, the preferred embodiment here transfers expression plasmid of leptin (pcLeptin) to liver cancer cells to be cultured for a day; and a serum-free medium is used for the next day. Then, after the cells are processed with 10^−4M MPA for 24 hours, cell growth is analyzed through XTT assay. In FIG. 15A, leptin gene is transferred to cells for a short time for obtaining very much leptin within the cells by themselves. After applying MPA to the cells for 24 hours, it is confirmed that MPA's suppression on liver cancer cells is enhanced by a lot of leptin self-generated within the cells. Moreover, after obtaining a lot of leptin, medium is collected for immunoprecipitation and further western blotting. […] Then, after the cells are processed with 10^−4 M MPA for 24 hours, JAK/STAT-related proteins are analyzed through western blotting.

CC(=O)O[C@]1(C(C)=O)CC[C@H]2[C@@H]3C[C@H](C)C4=CC(=O)CC[C@]4(C)[C@H]3CC[C@@]21C [MPA, medroxyprogesterone acetate]
MPA's suppression on liver cancer cells (cells transfected with pcLeptin, 10^-4 M MPA, 24 hours): enhanced | suppressive effect on liver cancer cells (high-dose MPA 10^-4 M, 24 hours): obvious suppressive effect | suppressive effect on liver cancer cells (high-dose MPA 10^-4 M, 48 hours): the effect is enhanced | suppressive effect on liver cancer cells (low-dose MPA 10^-6 M, 24 hours or 48 hours): does not have obvious suppressive effect
